Measured values reported in publication PMC6044503 (ACS Omega, 2017).
Where a SMILES comes first, the peptide text is derived from it. [ ]: non-standard residue; d: D form. The star is where a group is joined. Cyclohexanecarbonyl = O=C(C1CCCCC1)*; Cha = N[C@@H](CC1CCCCC1)C(=O)O; Isobutyryl = CC(C)C(=O)*; Aib = CC(C)(N)C(=O)O; Bz = O=C(c1ccccc1)*

Assays:
human Y2R [1] = molecular target: T1, human Y2R (Homo sapiens, UniProt P49146); assay: biochemical; format: biochemical
T1 sequence (P49146 1-381): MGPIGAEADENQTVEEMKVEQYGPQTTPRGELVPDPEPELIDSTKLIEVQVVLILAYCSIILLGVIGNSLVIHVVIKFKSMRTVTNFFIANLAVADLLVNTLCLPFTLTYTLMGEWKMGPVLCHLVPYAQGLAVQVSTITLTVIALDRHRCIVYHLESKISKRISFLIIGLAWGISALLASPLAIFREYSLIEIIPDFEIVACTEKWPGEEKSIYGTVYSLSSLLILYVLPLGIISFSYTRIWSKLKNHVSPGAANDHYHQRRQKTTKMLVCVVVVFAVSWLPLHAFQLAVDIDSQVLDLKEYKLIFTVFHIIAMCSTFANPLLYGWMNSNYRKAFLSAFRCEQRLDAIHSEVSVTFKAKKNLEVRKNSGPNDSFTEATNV

male C57BL/6J mice = assay: Food intake assay, bolus ip administration in lean mice; format: in vivo, mouse; settings: 3 h after administration, vs saline, mean ± SD
human Y2R [2] = molecular target: T1, human Y2R; assay: biochemical; format: binding
[3] = Stability in 20% mouse serum/PBS; format: in vitro ADME; settings: mouse, 20% mouse serum in PBS

SMILES	EC50 (human Y2R [1])	% food intake inhibition (male C57BL/6J mice; bolus ip 1000 nmol/kg)	% food intake inhibition (male C57BL/6J mice; bolus ip 2000 nmol/kg)	IC50 (human Y2R [2])	remaining at 0.5 h [3]	% food intake inhibition (male C57BL/6J mice; bolus ip 500 nmol/kg)	% food intake inhibition (male C57BL/6J mice; bolus ip 250 nmol/kg)
CC[C@H](C)[C@H](NC(=O)[C@H](CC1CCCCC1)NC(=O)[C@H](Cc1c[nH]cn1)NC(=O)[C@H](CCCNC(=N)N)NC(=O)c1ccccc1)C(=O)N[C@@H](CC(N)=O)C(=O)N[C@@H](CC(C)C)C(=O)N[C@H](C(=O)N[C@H](C(=O)N[C@@H](CCCNC(=N)N)C(=O)N[C@@H](CCC(N)=O)C(=O)N[C@@H](CCCNC(=N)N)C(=O)N[C@@H](Cc1ccc(O)cc1)C(N)=O)[C@@H](C)O)[C@@H](C)CC [Compound 3] (Bz-RH[Cha]INLITRQRY-NH2)	1.9 nM	17 ± 7%	39 ± 7%	15 nM	10%		
CC[C@H](C)[C@H](NC(=O)[C@H](Cc1c[nH]c2ccccc12)NC(=O)[C@H](CC(N)=O)NC(=O)[C@H](CC1CCCCC1)NC(=O)[C@H](CC1CCCCC1)NC(=O)[C@H](Cc1c[nH]cn1)NC(=O)[C@H](CCCNC(=N)N)NC(=O)C1CCCCC1)C(=O)N[C@H](C(=O)N[C@@H](CCCNC(=N)N)C(=O)N[C@@H](CCC(N)=O)C(=O)N[C@@H](CCCNC(=N)N)C(=O)N[C@@H](CC1CCCCC1)C(N)=O)[C@@H](C)O [Compound 14] (Cyclohexanecarbonyl-RH[Cha][Cha]NWITRQR[Cha]-NH2)	11 nM			15 nM		23 ± 7%	
CC[C@H](C)[C@H](NC(=O)[C@H](CC1CCCCC1)NC(=O)[C@H](Cc1c[nH]cn1)NC(=O)[C@H](CCCNC(=N)N)NC(=O)C1CCCCC1)C(=O)N[C@@H](CC(N)=O)C(=O)N[C@@H](CC(C)C)C(=O)NC(C)(C)C(=O)N[C@H](C(=O)N[C@@H](CCCNC(=N)N)C(=O)N[C@@H](CCC(N)=O)C(=O)N[C@@H](CCCNC(=N)N)C(=O)N[C@@H](CC1CCCCC1)C(N)=O)[C@@H](C)O [Compound 16] (Cyclohexanecarbonyl-RH[Cha]INL[Aib]TRQR[Cha]-NH2)	1.6 nM			4.9 nM		5 ± 13%	
C[C@@H](O)[C@H](NC(=O)C(C)(C)NC(=O)[C@H](Cc1c[nH]c2ccccc12)NC(=O)[C@H](CC(N)=O)NC(=O)[C@H](CC1CCCCC1)NC(=O)[C@H](CC1CCCCC1)NC(=O)[C@H](Cc1c[nH]cn1)NC(=O)[C@H](CCCNC(=N)N)NC(=O)C1CCCCC1)C(=O)N[C@@H](CCCNC(=N)N)C(=O)N[C@@H](CCC(N)=O)C(=O)N[C@@H](CCCNC(=N)N)C(=O)N[C@@H](CC1CCCCC1)C(N)=O [Compound 27] (Cyclohexanecarbonyl-RH[Cha][Cha]NW[Aib]TRQR[Cha]-NH2)	2.2 nM			8.9 nM		12 ± 8%	
CC(C)C[C@H](NC(=O)[C@H](CC(N)=O)NC(=O)[C@H](Cc1c[nH]c2ccccc12)NC(=O)[C@H](CC1CCCCC1)NC(=O)[C@H](Cc1c[nH]cn1)NC(=O)[C@H](CCCNC(=N)N)NC(=O)c1ccccc1)C(=O)NC(C)(C)C(=O)N[C@H](C(=O)N[C@@H](CCCNC(=N)N)C(=O)N[C@@H](CCC(N)=O)C(=O)N[C@@H](CCCNC(=N)N)C(=O)N[C@@H](CC1CCCCC1)C(N)=O)[C@@H](C)O [Compound 18] (Bz-RH[Cha]WNL[Aib]TRQR[Cha]-NH2)	1.6 nM			6.4 nM		2 ± 8%	
CC(C)C[C@H](NC(=O)[C@H](CC(N)=O)NC(=O)[C@H](CC1CCCCC1)NC(=O)[C@H](CC1CCCCC1)NC(=O)[C@H](Cc1c[nH]cn1)NC(=O)[C@H](CCCNC(=N)N)NC(=O)C(C)C)C(=O)NC(C)(C)C(=O)N[C@H](C(=O)N[C@@H](CCCNC(=N)N)C(=O)N[C@@H](CCC(N)=O)C(=O)N[C@@H](CCCNC(=N)N)C(=O)N[C@@H](CC1CCCCC1)C(N)=O)[C@@H](C)O [Compound 23] (Isobutyryl-RH[Cha][Cha]NL[Aib]TRQR[Cha]-NH2)	1.2 nM			3.1 nM		20 ± 11%	14 ± 7%
